# Laboratory results taken from article PMC3740032 (Bioorganic & medicinal chemistry, 2013).
# “And” between values parts separate entries of the source, which are not always exact repeats. Identical values can stand only once.
# How the values were obtained:
# [1] = Prodrug aqueous stability at pH 7.4, 6.0 and 1.2; assay type: physicochemical
# BlaC = conditions: cited from earlier work
# [2] = cited from earlier work
# [3] = cited from earlier work; remark: listed apart in the source
compound,measurement,setting,value
"CC(OC(=O)O[C@H]1CCCCc2ccccc21)OC(=O)C1=C(S[C@@H]2CN[C@H](C(=O)N(C)C)C2)[C@H](C)[C@@H]2[C@@H]([C@@H](C)O)C(=O)N12 (stereo partly drawn) [Compound 23a, (1S,1′S/R)-Benzosuber-1-yloxycarbonyloxyethyl (1R,5S,6S)-2-{[(2S,4S)-2-(N,N-dimethylcarbamoyl)pyrrolidin-4-yl]thio}-6-[(1R)-1-hydroxyethyl]-1-methylcarbapen-2-em-3-carboxylate]",improvement of stability relative to prodrug 19,[1]; 100 µM,about 2 fold
"CC(=O)N1C[C@@H](SC2=C(C(=O)OCOC(=O)O[C@H]3CCCCc4ccccc43)N3C(=O)[C@H]([C@@H](C)O)[C@H]3[C@H]2C)C[C@H]1C(=O)N(C)C [Compound 24a, (S)-Benzosuber-1-yloxycarbonyloxymethyl (1R,5S,6S)-2-{[(2S,4S)-1-acetyl-2-(N,N-dimethylcarbamoyl)pyrrolidin-4-yl]thio}-6-[(1R)-1-hydroxyethyl]-1-methylcarbapen-2-em-3-carboxylate]",change in the hydrolysis rate relative to prodrug 19,"[1]; N-acetyl derivative, aqueous buffers",no significant change
O=C(O)[C@H]1/C(=C/CO)O[C@@H]2CC(=O)N21 [clavulanate],inhibition of BlaC,BlaC,irreversibly inhibited
"C[C@@H](O)[C@H]1C(=O)N2C(C(=O)OCOC(=O)O[C@@H]3CCc4ccccc43)=C(S[C@@H]3CN[C@H](C(=O)N(C)C)C3)[C@H](C)[C@H]12 [Compound 20, (R)-Indan-1-yloxycarbonyloxymethyl (1/R, 5S,6S)-2-{[(2S,4S)-2-(N,N-dimethylcarbamoyl)pyrrolidin-4-yl]thio}-6-[(1/R)-1-hydroxyethyl]-1-methylcarbapen-2-em-3-carboxylate]",half-life at 100 µM,"[1]; buffer, pH 7.4",< 1 min
"C[C@@H](O)[C@H]1C(=O)N2C(C(=O)OCOC(=O)O[C@@H]3CCCCc4ccccc43)=C(S[C@@H]3CN[C@H](C(=O)N(C)C)C3)[C@H](C)[C@H]12 [Compound 22, (R)-Benzosuber-1-yloxycarbonyloxymethyl (1R,5S, 6S)-2-{[(2S,4S)-2-(N,N-dimethylcarbamoyl)pyrrolidin-4-yl]thio}-6-[(1R)-1-hydroxyethyl]-1-methylcarbapen-2-em-3-carboxylate]",times more stable to hydrolysis compared with 1-tetralyl (18 and 21) and 1-indanyl (17 and 20) prodrugs,[1]; intestinal pH,37 times
same,times more stable to hydrolysis compared with 1-tetralyl (18 and 21) and 1-indanyl (17 and 20) prodrugs,[1]; physiological pH,20 times
CC(C)OC(=O)OC(C)OC(=O)C1=C(S[C@@H]2CN[C@H](C(=O)N(C)C)C2)[C@H](C)[C@@H]2[C@@H]([C@@H](C)O)C(=O)N12 (some centres unmarked) [Compound 2],% of each diastereomer hydrolyzed to 1,"[1]; physiological pH 7.4, period of 2 hours",10% and 13%
C[C@@H](O)[C@H]1C(=O)N2C(C(=O)O)=C(S[C@@H]3CN[C@H](C(=O)N(C)C)C3)[C@H](C)[C@H]12 [Meropenem],oral absorption,[2],negligible
same,Log D,[3],< −2.5
"C[C@@H](O)[C@H]1C(=O)N2C(C(=O)OCOC(=O)O[C@H]3CCCCc4ccccc43)=C(S[C@@H]3CN[C@H](C(=O)N(C)C)C3)[C@H](C)[C@H]12 [Compound 19, (S)-Benzosuber-1-yloxycarbonyloxymethyl (1R, 5S,6S)-2-{[(2S,4S)-2-(N,N-dimethylcarbamoyl)pyrrolidin-4-yl]thio}-6-[(1R)-1-hydroxyethyl]-1-methylcarbapen-2-em-3-carboxylate]",times more stable to hydrolysis compared with 1-tetralyl (18 and 21) and 1-indanyl (17 and 20) prodrugs,[1]; intestinal pH,37 times
same,times more stable to hydrolysis compared with 1-tetralyl (18 and 21) and 1-indanyl (17 and 20) prodrugs,[1]; physiological pH,20 times
